The conditions of data set [1]: for Absorbance: 400 nm; for Cilastatin content: HPLC. The protocol: Then, the glass vial was sealed and heated at 80° C. for 4 hours (to obtain a nitrogen-purged, heated sample). The aqueous solution before heating and the two samples prepared above were measured for absorbance, which served as an index for the degree of coloration, and also analyzed by HPLC to confirm the content of cilastatin.
The analysis conditions are detailed below.
Absorbance Measurement Conditions:
Equipment: Hitachi U-3900
Optical path length: 1 cm
HPLC Analysis Conditions:
Detector: Ultraviolet absorptiometer (measurement wavelength: 216 nm)
Column: 1.7 μm octadecylsilylated silica gel column (Acquity BEH C18, produced by Waters), 2.1 mm I.D., 50 mm long
Column temperature: 40° C.
Mobile phase: 25 mM phosphate buffer containing 9.5% acetonitrile (pH 4.25)
Amount of sample injected: 5 μL (prepared to 100 μg/mL)
Retention time: Cilastatin (about 2.6 min.)

Setting [2] is: N2-purged headspace, heated 80° C. for 4 hours.

Each structure is given as a SMILES string. Like-named read-outs stand apart in the source and are kept apart here.

Consider `CC1(C)C[C@@H]1C(=O)N/C(=C\CCCCSC[C@H](N)C(=O)O)C(=O)O` [cilastatin sodium, (Z)-7-[[(R)-2-amino-2-carboxyethyl]thio]-2-[[[(S)-2,2-dimethylcyclopropyl]carbonyl]amino]-2-heptenoic acid], for which, where the note is “after storage at 45° C.”, the content of cilastatin result was “decreased slightly”. The color of solution result is, setting by setting: (after storage at 45° C. for 23 days) “yellow”; (after storage at 45° C. for 65 days) “brown”; (at the time of preparation, deionized water) “slightly yellow”. For the same molecule, the “appearance according to visual observation” value in data set [1] (200 mg/mL aqueous solution) was “slightly yellow”. In addition, the “pH at the time of preparation” value in data set [1] (200 mg/mL aqueous solution) amounted to 6.79. The Absorbance in data set [1] (setting [2]) is listed as 0.166; in data set [1] (before heating, 200 mg/mL aqueous solution, optical path 1 cm) it was 0.040; in data set [1] (heated sample: sealed glass vial, 80° C. for 4 hours), 0.203. Also, the Cilastatin content was 99.15% in data set [1] (setting [2]) and 98.99% in data set [1] (before heating).
